Laboratory results published in ChEMBL document CHEMBL4680203, “Cladosins L-O, new hybrid polyketides from the endophytic fungus Cladosporium sphaerospermum WBS017” (Eur J Med Chem, 2020).

Columns and labels:
[1] = test system: Staphylococcus aureus; experiment: Antibacterial activity against Staphylococcus aureus ATCC 29213 assessed as reduction in microbial growth by CLSI based broth microdilution method; assay type: functional
[2] = test system: Ustilago maydis; experiment: Antifungal activity against Ustilago maydis AB33 assessed as diameter of zone inhibition at 100 ug by Kirby-Bauer disk diffusion method; assay type: functional; conditions: Mycosarcoma maydis
[3] = test system: Mycobacterium tuberculosis; experiment: Antitubercular activity against Mycobacterium tuberculosis H37Rv assessed as reduction in microbial growth by CLSI based broth microdilution method; assay type: functional
[4] = test system: Acinetobacter baumannii; experiment: […] activity against Acinetobacter baumannii BAA1605 assessed as reduction in microbial growth by CLSI based broth microdilution method; assay type: functional
[5] = test system: L5178Y; experiment: Cytotoxicity against mouse L5178Y cells assessed as cell viability at 10 ug/ml after 24 hrs by MTT assay relative to control; assay type: functional; conditions: read-out: Activity
[6] = test system: Pseudomonas aeruginosa; experiment: Antibacterial activity against Pseudomonas aeruginosa 27853 assessed as reduction in microbial growth by CLSI based broth microdilution method; assay type: functional
[7] = test system: L5178Y; experiment: Cytotoxicity against mouse L5178Y cells assessed as reduction in cell viability after 24 hrs by MTT assay; assay type: functional, cell-based
[8] = test system: Saccharomyces cerevisiae; experiment: Antifungal activity against Saccharomyces cerevisiae ESM356-1 assessed as diameter of zone inhibition at 100 ug by Kirby-Bauer disk diffusion method; assay type: functional, organism-based; conditions: dose 100.0 µg
[9] = test system: Enterococcus faecalis; experiment: […] activity against Enterococcus faecalis ATCC 29212 assessed as reduction in microbial growth by CLSI based broth microdilution method; assay type: functional
[10] = test system: Staphylococcus aureus; experiment: Antibacterial activity against Staphylococcus aureus ATCC 700699 assessed as reduction in microbial growth by CLSI based broth microdilution method; assay type: functional
[11] = test system: Ustilago maydis; experiment: Antifungal activity against Ustilago maydis AB33 assessed as diameter of zone inhibition at 50 ug by Kirby-Bauer disk diffusion method; assay type: functional; conditions: Mycosarcoma maydis, read-out: DIZ
[12] = test system: Saccharomyces cerevisiae; experiment: Antifungal activity against Saccharomyces cerevisiae ESM356-1 assessed as diameter of zone inhibition at 50 ug by Kirby-Bauer disk diffusion method; assay type: functional; conditions: read-out: DIZ

Compound | MIC [1] [µM] | MIC [3] [µM] | MIC [4] [µM] | viability at 10 µg/mL [5] [%] | MIC [6] [µM] | further results
CC(C)=C1NC(=O)C(=C2C=CCC(C)O2)C1=O (centres undefined) | > 100 | > 100 | > 100 | 0 | > 100 | zone of inhibition at 100 µg/disc ([2]; read-out: DIZ): 9.7 mm; EC50 [7]: 3.7 µM
CC(C)=C1NC(=O)C(=C(N)CC(O)C[C@@H](C)O)C1=O (some centres undefined) | > 100 | 100 | > 100 | 82.2 | > 100 | –
NYSTATIN | – | – | – | – | – | inhibition zone (IZ) ([2]; dose 100.0 µg): 32.7 mm; inhibition zone (IZ) [8]: 7.8 mm
CC(C)=C1NC(=O)C(=Cc2ccc(O)cc2)C1=O (mixture of isomers) | 50 | > 100 | > 100 | 18.2 | > 100 | MIC [9]: > 100 µM; MIC [10]: 25 µM
CC(C)=C1NC(=O)C2=C1O[C@H](C[C@H](C)O)CC2=O | > 100 | > 100 | > 100 | 100 | > 100 | –
CC(C)=C1NC(=O)C2=C1O[C@@H](C[C@H](C)O)CC2=O | > 100 | > 100 | > 100 | – | > 100 | –
CC(C)=C1NC(=O)C(=C(N)/C=C/CC(C)O)C1=O (centres undefined) | > 100 | 100 | > 100 | 32.8 | > 100 | –
CN[C@H]1C[C@@H](N)[C@H](O)[C@@H](O[C@@H]2O[C@H](CO)[C@H](O)[C@@H]3O[C@@]4(O[C@H]23)O[C@H]([C@H](N)CO)[C@H](O)[C@H](O)[C@H]4O)[C@@H]1O | – | – | – | – | – | zone of inhibition at 50 µg/disc [11]: 8.3 mm; zone of inhibition at 50 µg/disc [12]: 8.7 mm
C/C=C1\NC(=O)[C@H](Cc2ccccc2)NC(=O)[C@H](C(C)C)NC(=O)[C@@H]([C@@H](C)CC)NC(=O)[C@@H](NC(=O)[C@H](NC(=O)[C@H](CCCN)NC(=O)[C@H]2CCCN2C(=O)[C@@H](NC(=O)C(NC(=O)[C@@H](NC(=O)[C@@H](NC(=O)CCCC(C)C)C(C)C)[C@@H](C)O)C(C)C)C(C)C)[C@@H](C)CC)[C@@H](C)OC(=O)[C@H](C(C)C)NC1=O (some centres undefined) | – | – | – | 0 | – | EC50 [7]: 4.3 µM
CC(C)=C1NC(=O)C(=C(N)CCCC(C)O)C1=O (mixture of isomers) | > 100 | 100 | > 100 | 50.9 | > 100 | –
CC(C)=C1NC(=O)C(=C(N)CC(O)C[C@H](C)O)C1=O (some centres undefined) | > 100 | 100 | > 100 | 53.1 | > 100 | –
